Laboratory results taken from publication PMC7960226 (Science (New York, N.Y.), 2020).
Read-outs that look alike come from different tables or passages of the source. Marks after values point to notes of the source that are not given here.

Legend:
[1] = Madin-Darby canine kidney permeability assay
[2] = Pharmacokinetics in rats after i.v. and oral administration
[3] = target: T1, PTGS2 (Homo sapiens, UniProt P35354); experiment: safety panel assay, PTGS2; format: biochemical; settings: Table 2, PTGS2; accurate to ±20%
T1 sequence (P35354 18-604): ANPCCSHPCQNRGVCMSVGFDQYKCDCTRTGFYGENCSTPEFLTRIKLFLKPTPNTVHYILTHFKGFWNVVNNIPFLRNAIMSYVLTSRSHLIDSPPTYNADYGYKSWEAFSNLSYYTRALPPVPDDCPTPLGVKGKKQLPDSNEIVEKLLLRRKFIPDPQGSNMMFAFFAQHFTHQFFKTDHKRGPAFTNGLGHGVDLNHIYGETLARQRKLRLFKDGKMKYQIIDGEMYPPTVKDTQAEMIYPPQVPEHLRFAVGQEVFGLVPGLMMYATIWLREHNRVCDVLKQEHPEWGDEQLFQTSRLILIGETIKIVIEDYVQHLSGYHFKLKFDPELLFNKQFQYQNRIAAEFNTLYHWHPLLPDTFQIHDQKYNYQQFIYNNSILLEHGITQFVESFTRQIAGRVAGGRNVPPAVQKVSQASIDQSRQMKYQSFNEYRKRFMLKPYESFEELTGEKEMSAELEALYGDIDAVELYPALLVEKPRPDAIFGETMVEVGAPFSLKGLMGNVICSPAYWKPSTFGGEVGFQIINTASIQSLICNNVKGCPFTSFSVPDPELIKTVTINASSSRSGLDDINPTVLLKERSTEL

[4] = target: T2, SLCO2B1 (Homo sapiens, UniProt O94956); experiment: in vitro transporter inhibition, SLCO2B1; format: biochemical; settings: Table 1, predicted target SLCO2B1
T2 sequence (O94956 1-709): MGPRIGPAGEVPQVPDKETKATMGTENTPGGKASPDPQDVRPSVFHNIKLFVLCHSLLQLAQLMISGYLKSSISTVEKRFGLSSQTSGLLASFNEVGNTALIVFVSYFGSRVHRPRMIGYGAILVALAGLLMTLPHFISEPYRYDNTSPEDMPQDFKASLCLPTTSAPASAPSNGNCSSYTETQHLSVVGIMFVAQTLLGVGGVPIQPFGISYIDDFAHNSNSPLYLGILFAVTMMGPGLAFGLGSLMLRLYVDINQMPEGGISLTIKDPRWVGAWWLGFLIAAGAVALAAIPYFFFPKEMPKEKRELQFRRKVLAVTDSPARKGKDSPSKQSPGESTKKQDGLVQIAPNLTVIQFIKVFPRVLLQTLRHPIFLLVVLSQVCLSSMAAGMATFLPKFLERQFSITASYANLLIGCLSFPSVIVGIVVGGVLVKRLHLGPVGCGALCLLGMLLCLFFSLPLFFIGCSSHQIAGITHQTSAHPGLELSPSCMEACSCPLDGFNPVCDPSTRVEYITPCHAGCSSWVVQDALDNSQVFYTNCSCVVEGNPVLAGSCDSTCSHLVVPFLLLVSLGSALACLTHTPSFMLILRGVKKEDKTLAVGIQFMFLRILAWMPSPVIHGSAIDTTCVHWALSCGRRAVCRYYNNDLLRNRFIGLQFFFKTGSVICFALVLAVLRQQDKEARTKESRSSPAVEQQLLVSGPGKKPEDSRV

[5] = rat, in vivo, 1 mg/kg
[6] = target: T3, SLCO1B1 (Homo sapiens, UniProt Q9Y6L6); experiment: in vitro transporter assay, SLCO1B1
T3 sequence (Q9Y6L6 1-691): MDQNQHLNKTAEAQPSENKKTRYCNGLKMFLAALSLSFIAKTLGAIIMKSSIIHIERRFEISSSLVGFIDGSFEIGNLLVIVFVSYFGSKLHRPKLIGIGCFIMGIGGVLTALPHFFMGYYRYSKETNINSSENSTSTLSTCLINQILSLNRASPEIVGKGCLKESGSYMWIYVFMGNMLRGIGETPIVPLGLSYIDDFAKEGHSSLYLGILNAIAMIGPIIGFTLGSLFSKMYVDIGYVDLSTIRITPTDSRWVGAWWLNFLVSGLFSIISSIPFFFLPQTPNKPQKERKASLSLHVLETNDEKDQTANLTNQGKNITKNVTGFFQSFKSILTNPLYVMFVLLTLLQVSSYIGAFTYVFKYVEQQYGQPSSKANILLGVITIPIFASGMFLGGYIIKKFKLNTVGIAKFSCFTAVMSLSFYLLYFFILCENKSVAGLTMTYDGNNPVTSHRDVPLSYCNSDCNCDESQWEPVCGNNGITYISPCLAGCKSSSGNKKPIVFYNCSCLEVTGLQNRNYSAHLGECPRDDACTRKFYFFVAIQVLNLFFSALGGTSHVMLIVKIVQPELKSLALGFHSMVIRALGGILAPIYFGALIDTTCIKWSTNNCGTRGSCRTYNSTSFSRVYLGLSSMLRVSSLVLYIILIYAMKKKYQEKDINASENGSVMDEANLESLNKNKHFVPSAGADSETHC

[7] = target: PDE4D (Homo sapiens, UniProt Q08499); experiment: in vitro assay, PDE4D; format: biochemical
Chain of PDE4D (Q08499 whole entry): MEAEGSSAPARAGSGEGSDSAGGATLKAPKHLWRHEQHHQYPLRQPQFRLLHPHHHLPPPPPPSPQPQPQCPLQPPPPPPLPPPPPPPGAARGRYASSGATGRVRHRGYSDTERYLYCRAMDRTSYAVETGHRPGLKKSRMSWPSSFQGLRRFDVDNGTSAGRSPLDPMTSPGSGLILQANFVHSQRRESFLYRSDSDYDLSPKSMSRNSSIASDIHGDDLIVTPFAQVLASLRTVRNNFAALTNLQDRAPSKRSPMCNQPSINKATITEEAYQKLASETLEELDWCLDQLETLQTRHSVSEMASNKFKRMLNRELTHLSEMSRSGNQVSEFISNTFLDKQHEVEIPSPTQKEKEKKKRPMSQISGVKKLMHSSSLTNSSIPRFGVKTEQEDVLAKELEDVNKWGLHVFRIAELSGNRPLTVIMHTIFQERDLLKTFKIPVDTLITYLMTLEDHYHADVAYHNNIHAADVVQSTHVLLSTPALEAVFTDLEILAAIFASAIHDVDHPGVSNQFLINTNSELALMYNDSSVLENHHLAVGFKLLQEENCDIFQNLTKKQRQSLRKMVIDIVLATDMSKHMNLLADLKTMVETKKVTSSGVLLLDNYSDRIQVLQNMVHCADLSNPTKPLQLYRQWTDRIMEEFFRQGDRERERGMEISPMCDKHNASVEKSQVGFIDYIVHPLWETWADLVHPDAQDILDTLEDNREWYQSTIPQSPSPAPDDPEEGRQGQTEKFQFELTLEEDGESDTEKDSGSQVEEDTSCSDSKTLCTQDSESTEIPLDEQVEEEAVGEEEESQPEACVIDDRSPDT

[8] = rat, in vivo, cited from earlier work
[9] = system: BioMAP Diversity PLUS panel; experiment: BioMAP Diversity PLUS panel of cell-based systems
[10] = target: DRD5 (Homo sapiens, UniProt P21918); experiment: in vitro assay, DRD5; format: binding
Chain of DRD5 (P21918 whole entry, species assumed): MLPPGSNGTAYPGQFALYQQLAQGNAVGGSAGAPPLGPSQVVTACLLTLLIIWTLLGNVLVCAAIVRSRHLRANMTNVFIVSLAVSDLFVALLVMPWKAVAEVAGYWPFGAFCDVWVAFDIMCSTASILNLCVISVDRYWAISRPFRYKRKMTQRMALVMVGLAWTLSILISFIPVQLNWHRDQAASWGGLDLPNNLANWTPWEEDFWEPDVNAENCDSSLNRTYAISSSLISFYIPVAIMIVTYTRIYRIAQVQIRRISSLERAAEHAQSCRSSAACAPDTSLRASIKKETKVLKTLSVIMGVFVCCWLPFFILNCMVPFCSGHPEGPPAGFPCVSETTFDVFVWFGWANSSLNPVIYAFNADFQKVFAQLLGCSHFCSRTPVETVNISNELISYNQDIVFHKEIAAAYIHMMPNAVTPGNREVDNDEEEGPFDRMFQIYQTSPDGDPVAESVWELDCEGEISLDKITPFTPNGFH

[11] = target: DRD3 (Homo sapiens, UniProt P35462); settings: for Kd: read-out: dopamine D3 receptor Kd
Chain of DRD3 (P35462 whole entry, species assumed): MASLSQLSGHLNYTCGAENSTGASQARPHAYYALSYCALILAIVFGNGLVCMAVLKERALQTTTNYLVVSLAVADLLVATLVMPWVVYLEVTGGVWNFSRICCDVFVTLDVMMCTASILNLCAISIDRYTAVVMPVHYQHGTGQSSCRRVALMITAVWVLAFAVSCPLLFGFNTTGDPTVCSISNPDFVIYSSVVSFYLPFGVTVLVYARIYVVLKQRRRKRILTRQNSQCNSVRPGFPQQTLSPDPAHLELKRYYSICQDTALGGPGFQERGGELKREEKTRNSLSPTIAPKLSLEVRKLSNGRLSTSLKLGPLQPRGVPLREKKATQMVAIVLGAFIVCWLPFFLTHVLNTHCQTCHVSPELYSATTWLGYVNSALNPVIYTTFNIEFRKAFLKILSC

[12] = human adults after repeated vaccination ref 43; cited from earlier work
[13] = target: SLC18A2 (Homo sapiens, UniProt Q05940); experiment: transporter inhibition, SLC18A2; format: biochemical; settings: Table 2, SLC18A2; accurate to ±20%
Chain of SLC18A2 (Q05940 whole entry, species assumed): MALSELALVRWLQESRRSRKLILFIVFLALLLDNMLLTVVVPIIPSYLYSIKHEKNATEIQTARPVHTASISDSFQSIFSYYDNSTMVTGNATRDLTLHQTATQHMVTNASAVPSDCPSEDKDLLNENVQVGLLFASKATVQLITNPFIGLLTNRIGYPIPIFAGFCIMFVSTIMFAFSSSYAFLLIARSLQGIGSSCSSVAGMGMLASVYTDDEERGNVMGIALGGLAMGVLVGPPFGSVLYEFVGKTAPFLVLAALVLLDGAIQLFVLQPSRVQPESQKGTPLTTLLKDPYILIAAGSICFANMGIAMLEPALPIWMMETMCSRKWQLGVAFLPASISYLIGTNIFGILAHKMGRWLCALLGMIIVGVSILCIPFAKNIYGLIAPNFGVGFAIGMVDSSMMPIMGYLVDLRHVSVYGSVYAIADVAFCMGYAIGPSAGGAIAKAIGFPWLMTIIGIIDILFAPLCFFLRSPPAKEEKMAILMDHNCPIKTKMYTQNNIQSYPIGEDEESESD

[14] = target: PDE3A (Homo sapiens, UniProt Q14432); experiment: safety panel assay, PDE3A; format: biochemical; settings: Table 2, PDE3A; accurate to ±20%
[15] = system: rats; settings: cited from earlier work
[16] = system: rat brain; settings: prenatal treatment, rat brain ref 51; cited from earlier work
[17] = target: T4, CHRM1 (Homo sapiens, UniProt P11229); settings: Table 2, CHRM1; accurate to ±20%
T4 sequence (P11229 1-460): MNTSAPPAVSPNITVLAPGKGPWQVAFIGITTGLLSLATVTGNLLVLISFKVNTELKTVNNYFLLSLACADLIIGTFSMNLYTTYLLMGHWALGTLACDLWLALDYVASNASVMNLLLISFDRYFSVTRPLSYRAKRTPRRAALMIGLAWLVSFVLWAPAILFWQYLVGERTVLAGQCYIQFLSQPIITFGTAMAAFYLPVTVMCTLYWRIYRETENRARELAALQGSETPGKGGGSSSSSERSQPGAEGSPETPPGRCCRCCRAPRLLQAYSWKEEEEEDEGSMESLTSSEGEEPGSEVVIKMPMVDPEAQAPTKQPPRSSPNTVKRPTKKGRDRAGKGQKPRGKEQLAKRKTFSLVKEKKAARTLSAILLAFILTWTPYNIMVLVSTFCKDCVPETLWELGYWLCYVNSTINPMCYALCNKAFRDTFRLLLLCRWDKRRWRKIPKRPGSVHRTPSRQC

[18] = target: T5, ADRA1A (Homo sapiens, UniProt P35348); settings: Table 2, ADRA1A; accurate to ±20%
T5 sequence (P35348 1-466): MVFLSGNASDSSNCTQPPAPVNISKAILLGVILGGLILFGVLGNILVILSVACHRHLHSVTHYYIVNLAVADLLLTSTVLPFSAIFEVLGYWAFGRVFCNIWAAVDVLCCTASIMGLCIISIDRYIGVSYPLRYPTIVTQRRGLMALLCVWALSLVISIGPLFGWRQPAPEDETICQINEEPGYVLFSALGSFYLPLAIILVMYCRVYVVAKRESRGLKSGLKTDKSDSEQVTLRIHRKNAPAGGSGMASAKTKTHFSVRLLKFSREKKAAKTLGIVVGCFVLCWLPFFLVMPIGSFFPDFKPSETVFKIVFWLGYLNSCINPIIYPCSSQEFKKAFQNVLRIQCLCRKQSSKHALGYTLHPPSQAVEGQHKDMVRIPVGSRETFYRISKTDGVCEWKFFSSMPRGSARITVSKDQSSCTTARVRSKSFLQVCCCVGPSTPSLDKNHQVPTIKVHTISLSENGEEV

[19] = target: SLC6A2 (Homo sapiens, UniProt P23975); settings: Table 2, SLC6A2; accurate to ±20%
Chain of SLC6A2 (P23975 whole entry, species assumed): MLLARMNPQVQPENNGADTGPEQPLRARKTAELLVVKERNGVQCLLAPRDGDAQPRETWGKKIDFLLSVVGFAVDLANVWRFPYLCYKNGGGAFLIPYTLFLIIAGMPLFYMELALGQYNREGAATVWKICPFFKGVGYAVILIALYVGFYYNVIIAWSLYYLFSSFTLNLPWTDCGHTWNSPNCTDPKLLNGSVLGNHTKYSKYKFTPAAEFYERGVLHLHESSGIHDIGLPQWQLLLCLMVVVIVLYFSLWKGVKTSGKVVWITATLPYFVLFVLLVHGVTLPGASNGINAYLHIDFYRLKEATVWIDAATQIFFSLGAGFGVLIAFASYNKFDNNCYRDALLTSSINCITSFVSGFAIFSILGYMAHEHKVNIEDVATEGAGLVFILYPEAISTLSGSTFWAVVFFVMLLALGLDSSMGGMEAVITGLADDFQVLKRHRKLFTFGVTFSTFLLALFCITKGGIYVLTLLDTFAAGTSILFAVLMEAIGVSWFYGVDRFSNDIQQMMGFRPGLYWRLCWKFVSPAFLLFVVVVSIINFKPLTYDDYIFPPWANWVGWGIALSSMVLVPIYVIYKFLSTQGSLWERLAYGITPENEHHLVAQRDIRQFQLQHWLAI

[20] = target: hERG ion channel (Homo sapiens, UniProt Q12809)
Chain of hERG ion channel (Q12809 whole entry): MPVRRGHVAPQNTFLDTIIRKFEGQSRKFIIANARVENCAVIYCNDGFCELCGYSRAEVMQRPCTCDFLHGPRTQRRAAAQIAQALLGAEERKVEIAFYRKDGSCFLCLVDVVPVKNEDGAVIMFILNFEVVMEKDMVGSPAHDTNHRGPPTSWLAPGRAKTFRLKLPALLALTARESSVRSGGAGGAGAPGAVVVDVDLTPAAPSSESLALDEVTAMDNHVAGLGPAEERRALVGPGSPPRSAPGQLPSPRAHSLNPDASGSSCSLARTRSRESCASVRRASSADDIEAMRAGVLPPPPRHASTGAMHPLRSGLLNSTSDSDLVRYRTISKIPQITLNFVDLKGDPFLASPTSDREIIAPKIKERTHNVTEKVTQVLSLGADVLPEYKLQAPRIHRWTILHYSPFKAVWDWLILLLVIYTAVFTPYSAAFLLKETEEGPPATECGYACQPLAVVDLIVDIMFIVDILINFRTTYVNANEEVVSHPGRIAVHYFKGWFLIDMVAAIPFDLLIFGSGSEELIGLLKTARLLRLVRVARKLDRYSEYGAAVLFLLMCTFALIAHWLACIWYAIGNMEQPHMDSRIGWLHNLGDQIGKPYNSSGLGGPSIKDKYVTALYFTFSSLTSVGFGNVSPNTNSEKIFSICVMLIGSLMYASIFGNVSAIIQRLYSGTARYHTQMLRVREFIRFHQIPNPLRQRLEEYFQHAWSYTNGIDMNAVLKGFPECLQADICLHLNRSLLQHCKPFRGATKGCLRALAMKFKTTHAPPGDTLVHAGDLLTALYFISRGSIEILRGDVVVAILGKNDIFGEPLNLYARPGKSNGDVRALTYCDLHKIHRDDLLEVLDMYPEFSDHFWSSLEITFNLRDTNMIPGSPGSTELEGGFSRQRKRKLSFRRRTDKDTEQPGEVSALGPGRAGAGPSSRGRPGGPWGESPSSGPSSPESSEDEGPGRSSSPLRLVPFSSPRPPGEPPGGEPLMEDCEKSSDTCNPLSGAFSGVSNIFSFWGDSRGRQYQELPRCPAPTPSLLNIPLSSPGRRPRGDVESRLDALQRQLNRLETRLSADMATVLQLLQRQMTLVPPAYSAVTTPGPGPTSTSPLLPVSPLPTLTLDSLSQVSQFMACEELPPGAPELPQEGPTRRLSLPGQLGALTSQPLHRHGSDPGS

Work on CCCCCCCCCCCCCCCC[n+]1ccccc1 [Cetylpyridinium chloride] yielded a Papp ([1]; dog, MDCK) of under 0.5 ×10⁻⁶ cm/s, a bioavailability ([2]; rat, in vivo, 1 mg/kg) of 5.4% and a half-life ([2]; rat, in vivo, iv, 1 mg/kg) of 9.7 h. For the same compound, the Cmax ([2]; rat, in vivo, po, 1 mg/kg) was 260 nM, the “i.v. AUC 0–24 (d.n.)” value ([2]; rats, i.v. 1 mg/kg, dose normalized) was 15,972 nM-hour and the “Oral AUC 0–last (d.n.)” value ([2]; rats, oral 1 mg/kg, dose normalized) was 4,052 nM-hour.

For N[C@@H](CS)C(=O)O [Cysteine], the “Ki/IC50 Or EC50” value [3] was 4.7 µM.

In the case of O=S(=O)([O-])c1ccc(N=Nc2c(O)ccc3ccccc23)cc1.[Na+] [D&C Orange No. 4], the Ki/IC50 [4] is reported as 1.9 µM.

With Cc1ccc(N=Nc2c([O-])c(C(=O)O)cc3ccccc23)c(S(=O)(=O)[O-])c1.[Na+].[Na+] [D&C Red No. 6] the “MDCK-LE Papp” value ([1]; apparent permeability, Madin-Darby canine kidney permeability assay) was under 1.2 ×10⁻⁶ cm/s, the “%F” value [5] was 2.5% and the IC50 ([6]; Table 4, target SLCO1B1) was 3.1 µM.

For CCOC(=O)c1ccccc1C(=O)OCC [Diethyl phthalate], the Ki/IC50 ([7]; Table 1, PDE4D tested in place of SEA-predicted PDE4B and PDE1) is given as 8.5 µM, the “i.v. AUC 0–24 (d.n.)” value ([8]; iv) is given as 553 ^† nM-hour and the “t1/2 from i.v. dose” value ([8]; iv) is given as 1.0 ^† hours. For the same compound, the Cmax ([8]; po) was 253 nM, the “Oral AUC 0–last (d.n.)” value ([8]; po) was 350 ^† nM-hour and the TNF-α modulation ([9]; BioMAP, 1.1 to 30 μM) was “modulated tumor necrosis factor–α (TNF-α) in a dose-dependent manner”.

With CCCCC(CC)COC(=O)CC(C(=O)OCC(CC)CCCC)S(=O)(=O)O (stereo not drawn) [Docusate sodium] the Ki/IC50 [4] was 2.3 µM.

With C[CH2][Hg] [Ethyl mercury] the “Ki/IC50 Or EC50” value ([10]; Table 2, DRD5, accurate to ±20%) was 0.15 µM, the Kd ([10]; read-out: dopamine D5 receptor Kd) was about 0.15 µM and the “Ki/IC50 Or EC50” value ([11]; Table 2, DRD3, accurate to ±20%) was 0.21 µM. For the same compound, the Kd [11] was about 0.21 µM, the Kd ([11]; listed as major metabolite) was 0.21 µM and the “median blood concentration of ethyl mercury” value [12] was 0.14 ng/mL.

In the case of CCOC(=O)c1ccc(O)cc1 [Ethylparaben], the “Ki/IC50 Or EC50” value [13] is reported as 22 µM.

COc1cc(S(=O)(=O)[O-])c(C)cc1N=Nc1c(O)ccc2cc(S(=O)(=O)[O-])ccc12.[Na+].[Na+] [FD&C Red No. 40] gave a Ki/IC50 [4] of 4.7 µM.

Compound O=S(=O)([O-])c1ccc(N=Nc2c(O)ccc3cc(S(=O)(=O)[O-])ccc23)cc1.[Na+].[Na+] [FD&C Yellow No. 6] has a Ki/IC50 [4] of 74 µM.

For CC1(C)[C@@H](O[C@H]2O[C@H](C(=O)O)[C@@H](O)[C@H](O)[C@H]2O[C@@H]2O[C@H](C(=O)O)[C@@H](O)[C@H](O)[C@H]2O)CC[C@]2(C)[C@H]3C(=O)C=C4[C@@H]5C[C@@](C)(C(=O)O)CC[C@]5(C)CC[C@@]4(C)[C@]3(C)CC[C@@H]12 [Glycyrrhizin], the Ki/IC50 ([6]; Table 1, predicted target SLCO1B1) was 13 µM.

In the case of CCCCCCCCCCCCCCCC(=O)O [Palmitic acid], the “Ki/IC50 Or EC50” value ([7]; Table 2, PDE4D, accurate to ±20%) is reported as 6.6 µM, the “Ki/IC50 Or EC50” value [14] is reported as 4.1 µM and the “Ki/IC50 Or EC50” value [13] is reported as 4.4 µM.

In the case of C[CH2][Hg][S]c1ccccc1C(=O)[O-].[Na+] [Thimerosal], the “striatal D2 receptor density (immunohistochemistry)” value ([15]; rats ref 48) is listed as “decline in striatal D2 receptor density”, the behavioral effects ([15]; rats treated postnatally ref 48) is listed as “impaired locomotor function, increased anxiety/neophobia in the open field, and alterations in social behavior” and the IC50 ([11]; Table 4, target DRD3) is listed as 0.32 µM. For the same compound, the Kd [11] was 0.32 µM and the “effect on serotonergic and dopaminergic systems” value [16] was “impaired the serotonergic and dopaminergic systems in the rat brain”.

With Cc1ccc(C(C)C)c(O)c1 [Thymol] the “Ki/IC50 Or EC50” value [17] was 14 µM, the “Ki/IC50 Or EC50” value [18] was 26 µM and the “Ki/IC50 Or EC50” value [13] was 25 µM. For the same compound, the “Ki/IC50 Or EC50” value [19] was 28 µM.

For CNC1(c2ccccc2Cl)CCCCC1=O (stereo not drawn) [ketamine], the hERG activity [20] was “no detectable hERG activity”.

With CC(O)CO (stereo not drawn) [propylene glycol] the “activity in the BioMAP cell-based systems” value ([9]; 1.1, 3.3, 10, 30 μM) was “no measurable activity”.
